Read-outs that look alike come from different tables or passages of the source.
Columns and labels:
Y267G TeSADH = target: T1, Y267G TeSADH (Thermoanaerobacter brockii, UniProt P14941, A186D/Y267G); type: biochemical, Thermoanaerobacter ethanolicus; conditions: heat-treated crude extracts
T1 construct: His6 (C); made in house; host or cells: E. coli, pET24a(+); heat-treated crude extract
Description: (§1) J. 302:163-170), with (rac)-2-butanol, (rac)-1-phenethyl alcohol, (rac)-1-phenyl-2-propanol, (rac)-4-phenyl-2-butanol, and phenylacetone as substrates. Assays were done in the presence of 50 mM Tris-HCl [pH 8.0] and 0.4 mM NADP^+ (alcohol oxidation), or pH 6.5 and 0.4 mM NADPH (ketone reduction). Initial velocity was measured spectrophotometrically at 60° C. by following NADPH production (alcohol oxidation) or consumption (ketone reduction) at 340 nm for 1 min in a Varian Cary 300 UV/Vis spectrophotometer equipped with a Peltier heating system. The enzyme was preincubated for at least 5 min at 40° C. before being added to the assays. […] One unit of activity was defined as the amount of enzyme needed to consume or produce 1 μmol of NADPH per minute.

wild-type (WT) TeSADH = target: T2, wild-type (WT) TeSADH (Thermoanaerobacter brockii, UniProt P14941, A186D); type: biochemical, Thermoanaerobacter ethanolicus; conditions: 60° C., 1 min, 50 mM Tris-HCl pH~6.5 (ketones) or pH~8.0 (alcohols), 0.4 mM NADP(H)
T2 construct: made in house; the wild-type adhB gene sat in plasmid pADHBIM1-kan
T2 sequence (P14941 whole entry A186D): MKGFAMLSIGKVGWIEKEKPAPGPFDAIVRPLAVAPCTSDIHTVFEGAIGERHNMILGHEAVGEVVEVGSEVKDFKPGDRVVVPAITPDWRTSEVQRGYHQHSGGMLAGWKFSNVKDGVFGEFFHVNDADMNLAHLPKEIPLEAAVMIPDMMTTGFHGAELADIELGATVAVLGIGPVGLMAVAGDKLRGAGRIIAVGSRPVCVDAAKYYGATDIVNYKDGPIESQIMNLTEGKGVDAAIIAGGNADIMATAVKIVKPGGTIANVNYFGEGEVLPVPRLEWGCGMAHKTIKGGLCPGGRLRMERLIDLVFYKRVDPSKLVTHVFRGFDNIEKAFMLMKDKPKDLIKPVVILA
Description: as §1

Wild-type TeSADH [1] = target: T3, Wild-type TeSADH (Thermoanaerobacter brockii, UniProt P14941, A186D); type: biochemical, Thermoanaerobacter ethanolicus; set-up: made in house; the wild-type adhB gene sat in plasmid pADHBIM1-kan; conditions: heat-treated crude extracts
T3 sequence (P14941 whole entry A186D): as above
Description: as §1

Wild-type TeSADH [2] = target: T3, Wild-type TeSADH; conditions: 60° C., 1 min, 50 mM Tris-HCl pH ~8.0 (alcohols) or ~6.5 (ketones), 0.4 mM NADP(H)
Description: At least eight substrate concentrations were used for each data set and each set was performed in triplicate.

[3] = enzyme concentration estimated by SDS-PAGE

T1 sequence (P14941 whole entry A186D/Y267G): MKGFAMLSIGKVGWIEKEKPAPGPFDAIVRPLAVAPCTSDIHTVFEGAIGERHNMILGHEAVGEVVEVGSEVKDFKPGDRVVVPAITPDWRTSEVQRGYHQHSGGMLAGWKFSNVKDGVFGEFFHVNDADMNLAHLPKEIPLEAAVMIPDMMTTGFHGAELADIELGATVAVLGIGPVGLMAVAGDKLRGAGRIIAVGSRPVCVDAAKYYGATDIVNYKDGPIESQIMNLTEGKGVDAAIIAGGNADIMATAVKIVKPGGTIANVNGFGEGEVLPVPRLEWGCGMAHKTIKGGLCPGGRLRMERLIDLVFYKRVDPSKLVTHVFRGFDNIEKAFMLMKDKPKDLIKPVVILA

| SMILES | Activity of Y267G TeSADH (Y267G TeSADH) | Specific activity, WT (wild-type (WT) TeSADH; substrate 7.5 mM) | further results |
| --- | --- | --- | --- |
| CC(O)c1ccccc1 (racemic) [(rac)-1-Phenethyl alcohol] | no detectable activity | – | Specific activity, WT (wild-type (WT) TeSADH; substrate 10 mM): 0.15 U(umol)/mg protein |
| CC(O)Cc1ccccc1 (racemic) [(rac)-1-phenyl-2-propanol] | no detectable activity | – | Specific activity, WT (wild-type (WT) TeSADH; substrate 10 mM): 0.14 U(umol)/mg protein |
| CC(O)CCc1ccccc1 (racemic) [(rac)-4-Phenyl-2-butanol] | no detectable activity | 0.29 U(umol)/mg protein | – |
| CC(=O)CCc1ccccc1 [1a, 4-Phenyl-2-butanone] | – | 5.94 U(umol)/mg protein | Activity of wild-type TeSADH (Wild-type TeSADH [1]): only slight activity |
| CCC(C)O (stereo not drawn) [2-Butanol] | – | 45.27 U(umol)/mg protein | Specific activity of Y267G TeSADH (Y267G TeSADH; [3]): ~33 U/mg; Vmax (app), Wild-type TeSADH (Wild-type TeSADH [2]): 37 U/mg; Km (Wild-type TeSADH [2]; read-out: Km (app), Wild-type TeSADH): 510 µM; Specific activity of wild-type TeSADH (Wild-type TeSADH [1]; [3]): ~41 U/mg |
| CC(=O)Cc1ccccc1 [7a, 1-phenyl-2-propanone] | – | 1.02 U(umol)/mg protein | – |
| CC(=O)c1ccccc1 [Acetophenone] | – | 0.90 U(umol)/mg protein | – |
